Results as given in patent US20210392889A1, “COMPOSITIONS COMPRISING PYRIDINE CARBOXYLATE HERBICIDES WITH PDS INHIBITOR HERBICIDES” (Corteva Agriscience LLC, priority 2018, published 2021).

How the values were obtained:
Test in all cases: Greenhouse postemergence herbicidal effect, visual injury after 20-22 d
Assay type in all cases: in vivo
[1] = tested on: poinsettia (EPHHL, Euphorbia heterophylla)
Text: (§1) Seeds of the desired test plant species were planted in a 90:10% v/v (volume/volume) mixture of PRO-MIX® BX (Premier Tech Horticulture, Quakertown, Pa., USA) and PROFILE® GREENS GRADE™ (Profile Products LLC, Buffalo Grove, Ill., USA) planting mixture, which typically has a pH of 5.2 to 6.2 and an organic matter content of at least 50 percent, in plastic pots with a surface area of 103.2 square centimeters (cm^2). In some aspects, to ensure good germination and healthy plants, a fungicide treatment and/or other chemical or physical treatment was applied. The plants were grown for 7-36 days (d) in a greenhouse with an approximate 14-hour (h) photoperiod which was maintained at about 23° C. during the day and 22° C. during the night. Nutrients and water were added on a regular basis and supplemental lighting was provided with overhead metal halide 1000-Watt lamps as necessary. The plants were employed for testing when they reached the second or third true leaf stage.
(§2) Emulsifiable concentrates of each of each pyridine carboxylate herbicide (Compound A or Compound B) were prepared at 100 grams acid equivalent per liter (g ae/L). The emulsifiable concentrates also included a safener, cloquintocet-mexyl, at 120 grams active ingredient per liter (g ai/L). An aliquot of each emulsifiable concentrate was placed in a 25 mL glass vial and diluted with an aqueous mixture of 1.25% (v/v) ACTIROB® B esterified rapeseed oil (Bayer Crop Science, Research Triangle Park, N.C., USA) or MSO® Concentrate with LECI-TECH® methylated soybean oil (Loveland Products, Loveland, Colo., USA) to obtain concentrated stock solutions at the highest application rate for each herbicide, based upon a 12 milliliter (mL) application volume at a rate of 187 liters per hectare (L/ha). The concentrated stock solutions were further diluted with an aqueous mixture of 1.25% v/v ACTIROB® B or MSO® Concentrate with LECI-TECH® to obtain stock solutions at reduced application rates for each herbicide. Spray solutions of the herbicide combinations (Compound A or Compound B plus PDS inhibitor herbicide) were prepared by adding weighed amounts or aliquots of the PDS inhibitor herbicide to the stock solutions of Compound A or Compound B to form 12-mL spray solutions in two- or three-way combinations.
(§3) The spray solutions were applied to the plant material with an overhead Mandel track sprayer equipped with 8002E nozzles calibrated to deliver 187 L/ha over an application area of 0.503 square meters (m^2) at a spray height of 18 inches ([…] centimeters (cm)) above the average plant canopy. Control plants were sprayed in the same manner with the solvent blank. All pyridine carboxylate herbicide (component a) application rates are given as “g ae/ha” and all PDS inhibitor herbicide (component b) application rates are given as “g ai/ha.”
(§4) The treated plants and control plants were placed in a greenhouse as described above and watered by sub-irrigation to prevent wash-off of the test compounds. After 20-22 d, the condition of the test plants as compared with that of the control plants was determined visually and scored on a scale of 0 to 100 percent where 0 corresponds to no injury and 100 corresponds to complete kill.

[2] = tested on: common lambsquarters (CHEAL, Chenopodium album L.); conditions: for visual injury: Table 1
Text: as §1, §2, §3, §4

[3] = tested on: Canada thistle (CIRAR, Cirsium arvense); conditions: for visual injury: Table 1
Text: as §1, §2, §3, §4

[4] = tested on: soybean (GLXMA=Glycine max); conditions: Table 4
Text: as §1, §2, §3, §4

[5] = tested on: common rice (ORYSA, Oryza sativa); conditions: Table 4
Text: as §1, §2, §3, §4

[6] = tested on: winter rape (BRSNW, Brassica napus); conditions: for visual injury: Table 1
Text: as §1, §2, §3, §4

[7] = tested on: kochia (KCHSC, Kochia scoparia); conditions: for visual injury: Table 1
Text: as §1, §2, §3, §4

[8] = tested on: pigweed (AMARE, Amaranthus retroflexus); conditions: for visual injury: Table 1
Text: as §1, §2, §3, §4

[9] = tested on: large crabgrass (DIGSA, Digitaria sanguinalis); conditions: Table 4
Text: as §1, §2, §3, §4

[10] = tested on: velvetleaf (ABUTH, Abutilon theophrasti)
Text: as §1, §2, §3, §4

Structure (SMILES): N#CCOC(=O)c1nc(-c2ccc3cc[nH]c3c2F)c(F)c(N)c1Cl [Compound A, cyanomethyl 4-amino-3-chloro-5-fluoro-6-(7-fluoro-1H-indol-6-yl)pyridine-2-carboxylate]
- visual injury Obs ([1]; 7.5 g/ha, Table 5): 91%
- visual injury Obs ([1]; 7.5 g/ha, Table 6): 91%
- visual injury Obs ([1]; 10 g/ha, Table 5): 83%
- visual injury Obs ([1]; 10 g/ha, Table 6): 83%
- visual injury ([2]; 7.5 g/ha): 88%
- visual injury Obs ([2]; 7.5 g/ha, Table 2): 70%
- visual injury Obs ([2]; 7.5 g/ha, Table 3): 60%
- visual injury Obs ([2]; 7.5 g/ha, Table 4): 97%
- visual injury Obs ([2]; 7.5 g/ha, Table 7): 70%
- visual injury Obs ([2]; 7.5 g/ha, Table 8): 70%
- visual injury ([2]; 10 g/ha): 93%
- visual injury Obs ([2]; 10 g/ha, Table 2): 83%
- visual injury Obs ([2]; 10 g/ha, Table 3): 90%
- visual injury Obs ([2]; 10 g/ha, Table 4): 93%
- visual injury Obs ([2]; 10 g/ha, Table 7): 78%
- visual injury Obs ([2]; 10 g/ha, Table 8): 78%
- visual injury Obs ([2]; 15 g/ha, Table 8): 83%
- visual injury ([3]; 7.5 g/ha): 30%
- visual injury Obs ([3]; 7.5 g/ha, Table 3): 10%
- visual injury Obs ([3]; 7.5 g/ha, Table 4): 23%
- visual injury Obs ([3]; 7.5 g/ha, Table 5): 25%
- visual injury Obs ([3]; 7.5 g/ha, Table 6): 25%
- visual injury Obs ([3]; 7.5 g/ha, Table 7): 18%
- visual injury ([3]; 10 g/ha): 40%
- visual injury Obs ([3]; 10 g/ha, Table 3): 23%
- visual injury Obs ([3]; 10 g/ha, Table 4): 20%
- visual injury Obs ([3]; 10 g/ha, Table 5): 20%
- visual injury Obs ([3]; 10 g/ha, Table 6): 20%
- visual injury Obs ([3]; 10 g/ha, Table 7): 30%
- visual injury Obs ([4]; 7.5 g/ha): 93%
- visual injury Obs ([4]; 10 g/ha): 95%
- visual injury Obs ([5]; 7.5 g/ha): 13%
- visual injury Obs ([5]; 10 g/ha): 10%
- visual injury ([6]; 7.5 g/ha): 35%
- visual injury Obs ([6]; 7.5 g/ha, Table 7): 63%
- visual injury Obs ([6]; 7.5 g/ha, Table 8): 60%
- visual injury ([6]; 10 g/ha): 43%
- visual injury Obs ([6]; 10 g/ha, Table 7): 68%
- visual injury Obs ([6]; 10 g/ha, Table 8): 60%
- visual injury Obs ([6]; 15 g/ha, Table 8): 75%
- visual injury ([7]; 7.5 g/ha): 63%
- visual injury Obs ([7]; 7.5 g/ha, Table 2): 50%
- visual injury Obs ([7]; 7.5 g/ha, Table 5): 63%
- visual injury Obs ([7]; 7.5 g/ha, Table 6): 63%
- visual injury Obs ([7]; 7.5 g/ha, Table 7): 65%
- visual injury Obs ([7]; 7.5 g/ha, Table 8): 70%
- visual injury ([7]; 10 g/ha): 63%
- visual injury Obs ([7]; 10 g/ha, Table 2): 58%
- visual injury Obs ([7]; 10 g/ha, Table 5): 65%
- visual injury Obs ([7]; 10 g/ha, Table 6): 65%
- visual injury Obs ([7]; 10 g/ha, Table 7): 70%
- visual injury Obs ([7]; 10 g/ha, Table 8): 70%
- visual injury Obs ([7]; 15 g/ha, Table 8): 70%
- visual injury ([8]; 7.5 g/ha): 78%
- visual injury Obs ([8]; 7.5 g/ha, Table 3): 70%
- visual injury Obs ([8]; 7.5 g/ha, Table 5): 80%
- visual injury Obs ([8]; 7.5 g/ha, Table 6): 80%
- visual injury Obs ([8]; 7.5 g/ha, Table 7): 70%
- visual injury Obs ([8]; 7.5 g/ha, Table 8): 78%
- visual injury ([8]; 10 g/ha): 73%
- visual injury Obs ([8]; 10 g/ha, Table 3): 98%
- visual injury Obs ([8]; 10 g/ha, Table 5): 85%
- visual injury Obs ([8]; 10 g/ha, Table 6): 85%
- visual injury Obs ([8]; 10 g/ha, Table 7): 90%
- visual injury Obs ([8]; 10 g/ha, Table 8): 78%
- visual injury Obs ([8]; 15 g/ha, Table 8): 83%
- visual injury Obs ([9]; 7.5 g/ha): 45%
- visual injury Obs ([9]; 10 g/ha): 25%
- visual injury Obs ([10]; 7.5 g/ha, Table 4): 68%
- visual injury Obs ([10]; 7.5 g/ha, Table 5): 40%
- visual injury Obs ([10]; 7.5 g/ha, Table 6): 40%
- visual injury Obs ([10]; 10 g/ha, Table 4): 78%
- visual injury Obs ([10]; 10 g/ha, Table 5): 48%
- visual injury Obs ([10]; 10 g/ha, Table 6): 48%
